Settings in one data set: not given
In turn, `O=CN(c1ccccc1)c1ccccc1` showed a boiling point of 338 °C and a melting point of 73.5 °C.

Molecule `CC(=O)CC(c1ccc([N+](=O)[O-])cc1)c1c(O)c2ccccc2oc1=O` (centres undefined) returned a melting point of 197 °C.

As for `Oc1c(F)c(F)c(C(F)(F)F)c(F)c1F`, the boiling point is 164 °C.

`CC1=C(O)C(=O)[C@@H]2O[C@@H]2C1=O` displayed a melting point of 127 °C.

For `CC=CCCCCCCCCO`, the boiling point amounted to 248 °C and the melting point turned out to be 6 °C.

The molecule `CCO[Si](OCC)(OCC)OCC` came in with a boiling point of 169 °C, a log10 vapour pressure (mmHg) of 0.275 and a melting point of -82.5 °C.

`Cc1cc(-c2ccccc2)nnc1NCCN1CCOCC1` showed a melting point of 122 °C.

The molecule `c1ccc2[nH]cnc2c1` yielded a melting point of 170 °C.

Consider `Clc1ccc(-c2c(Cl)ccc(Cl)c2Cl)cc1`, for which the log10 Henry constant (atm·m³/mol) was -3.85 and the log10 Koa is 8.41.

`C[C@]12CC[C@H](O)C[C@H]1CC[C@@H]1[C@@H]2[C@H](O)C[C@]2(C)[C@@H](C3=CC(=O)OC3)CC[C@]12O` registered a melting point of 280 °C.

Molecule `CC1CC1C` (centres undefined) showed a boiling point of 32.6 °C and a melting point of -145 °C.

`ClC1=C(Cl)C2(Cl)C3C(Cl)C(Cl)C(Cl)C3C1(Cl)C2(Cl)Cl` (centres undefined) registered a log10 Koa of 9.43 and a log10 vapour pressure (mmHg) of -6.02.

As for `CC[C@H](CC[C@@H](C)[C@H]1CC[C@H]2[C@@H]3CC=C4C[C@@H](O)CC[C@]4(C)[C@H]3CC[C@]12C)C(C)C`, the melting point was 144 °C.

As for `Cc1ccc(C)c2ncccc12`, the boiling point worked out at 266 °C and the melting point was determined as 4.5 °C.

In turn, `COC(=O)c1ccc(C)cc1` came in with a boiling point of 220 °C and a melting point of 33.2 °C.

For `CC(C(=O)O)c1ccc(-c2ccccc2)c(F)c1` (centres undefined), the melting point came out at 110 °C.

Turning to `CCCCC(C#N)(Cn1ccnc1)c1ccccc1` (centres undefined), the melting point was determined as 161 °C.

In the case of `CCCC[C@@H](O)CCC`, the boiling point was 175 °C and the log10 vapour pressure (mmHg) was -0.507.

As for `N#Cc1cccc(Cl)c1`, the melting point was determined as 41 °C.

As for `COc1ccc(-c2ccccc2)cc1NNC(=O)OC(C)C`, the melting point is 122 °C.

In turn, `CCCC(O)C(C)C` (centres undefined) yielded a boiling point of 141 °C and a log10 vapour pressure (mmHg) of 0.129.

`CC(=O)c1cccc(O)c1` registered a boiling point of 296 °C and a melting point of 96 °C.

The molecule `O=C(O)CS(=O)(=O)CC(=O)O` showed a melting point of 182 °C.

`OC[C@H]1O[C@H](OC[C@H]2O[C@H](O)[C@H](O)[C@@H](O)[C@@H]2O)[C@H](O)[C@@H](O)[C@H]1O` showed a melting point of 86 °C.

On to `CC(C)(C)N(NC(=O)c1ccccc1)C(=O)c1ccccc1I`, for which the melting point turned out to be 188 °C.

Regarding `O=C1C=CC(=O)c2ccccc21`, the melting point is 128 °C and the ready biodegradability entry is “not readily biodegradable”.

On to `CC(C)=NNc1ccccc1`, for which the melting point stood at 42 °C.

`COC(=O)C1CC(=O)N(C)C1` (centres undefined) registered a melting point of 15 °C.

As for `N#CC(O)C(Cl)(Cl)Cl` (centres undefined), the melting point is 61 °C.

Molecule `C[Si](C)(C)O[Si](C)(C)O[Si](C)(C)O[Si](C)(C)O[Si](C)(C)O[Si](C)(C)O[Si](C)(C)O[Si](C)(C)C` displayed a log10 vapour pressure (mmHg) of -2.5.

The molecule `CCCCCCCCSC(=O)Oc1cc(Cl)nnc1-c1ccccc1` had a log10 vapour pressure (mmHg) of -9.01 and a melting point of 27 °C.

For the molecule `O=C1CCCCCCCCC1O` (centres undefined), the melting point was 42 °C.

In the case of `O=C(O)c1ccc(Br)c([N+](=O)[O-])c1`, the melting point is 204 °C.

`CCC(C)(O)CCl` (centres undefined) returned a boiling point of 151 °C.

`Cc1c2ccccc2cc2ccccc12` gave a log10 Koc (L/kg) of 4.81, a log10 biodegradation half-life (days) of 2.42, a log10 vapour pressure (mmHg) of -4.4 and a melting point of 81.5 °C.

As for `O=C(OC[C@H]1O[C@](O)(COC(=O)c2cccnc2)[C@@H](OC(=O)c2cccnc2)[C@@H]1OC(=O)c1cccnc1)c1cccnc1`, the melting point was 141 °C.

On to `O=C(n1ccnc1)n1ccnc1`, for which the melting point was 119 °C.

Turning to `CCNC(=S)NCC`, the melting point was determined as 78 °C.

Consider `C[Si](C)(C)CC(=O)O`, for which the melting point turned out to be 41 °C.

`C[Si]1(C)O[Si](C)(C)O[Si](C)(C)O[Si](C)(C)O[Si](C)(C)O[Si](C)(C)O[Si](C)(C)O[Si](C)(C)O1` gave a boiling point of 290 °C, a log10 vapour pressure (mmHg) of -2.54 and a melting point of 31.5 °C.

As for `c1c2c(cc3c1CCCC3)CCCC2`, the boiling point was found to be 294 °C and the melting point was 78 °C.

The molecule `C1CCCCCCC1` registered a boiling point of 149 °C, a log10 vapour pressure (mmHg) of 0.741 and a melting point of 14.8 °C.

`N#CCC(=O)c1ccc(N)cc1` gave a melting point of 159 °C.

`Cc1nnc(C)s1` had a boiling point of 202 °C and a melting point of 65 °C.

For the molecule `Oc1ccccc1I`, the melting point worked out at 43 °C and the ready biodegradability entry is given as “not readily biodegradable”.

As to `CCCCCCCCCCCCCCCCCCl`, the log10 vapour pressure (mmHg) was -4.34.

Consider `O=[N+]([O-])c1ccccc1CCO`, for which the boiling point came to 267 °C and the melting point came to 2 °C.

In the case of `C=CCSC#N`, the boiling point was 161 °C.

The molecule `Brc1ccc2cccnc2c1` had a boiling point of 290 °C and a melting point of 34 °C.

In turn, `COCC(C)C` had a boiling point of 58.6 °C and a log10 vapour pressure (mmHg) of 2.32.

Molecule `O=C(O)C(F)(F)F` showed a boiling point of 73 °C, a log10 Henry constant (atm·m³/mol) of -6.95, a log10 vapour pressure (mmHg) of 2.04 and a melting point of -15.2 °C.

On to `COC1=C[C@H](C)[C@H]2C[C@H]3OC(O)C[C@H]4C(C)=C(OC)C(=O)C([C@@]34C)[C@@]2(C)C1=O` (some centres undefined), for which the melting point stood at 227 °C.

In the case of `O=C(O)/C(F)=C/c1ccccc1`, the boiling point was determined as 290 °C and the melting point is 158 °C.

On to `COc1cc(C)c(/C=C/C(C)=C/C=C/C(C)=C/C(=O)O)c(C)c1C`, for which the melting point worked out at 229 °C.

The molecule `CCCC(Cl)Cl` displayed a boiling point of 114 °C and a log10 vapour pressure (mmHg) of 1.36.

Consider `COc1ccccc1N1CCN(CCCNc2cc(=O)n(C)c(=O)n2C)CC1`, for which the melting point was 157 °C.

`Cc1cccc(OC(N)=O)c1` displayed a log10 Koc (L/kg) of 1.48.

On to `NC(=O)NCCCC(N)C(=O)O` (stereo in doubt), for which the melting point is 236 °C.

For the molecule `O=S1(=O)OCCO1`, the melting point was determined as 99 °C.

Take `c1ccc(-c2ccccn2)nc1`: the boiling point is 274 °C, the log10 Koc (L/kg) was found to be 1.6 and the melting point was 72 °C.

For `CC(=O)c1ccccc1[N+](=O)[O-]`, the melting point amounted to 28.5 °C.

Molecule `CC[Si](CC)(CC)O[Si](CC)(CC)CC` displayed a boiling point of 233 °C.

In turn, `CCCCCCOC(=O)CCC` registered a boiling point of 208 °C and a melting point of -78 °C.

The molecule `CCC(=O)C(=O)O` displayed a melting point of 33 °C.

Molecule `COO` yielded a log10 Henry constant (atm·m³/mol) of -5.34.

`CO[C@@H]1C=C[C@@]23c4cc5c(cc4CO[C@]2(O)CN(C)[C@H]3C1)OCO5`: the melting point was determined as 210 °C.

As to `Cc1cc(Cc2cc(C)cc(C(C)(C)C)c2O)c(O)c(C(C)(C)C)c1`, the melting point stood at 123 °C and the ready biodegradability result is reported as “not readily biodegradable”.

Still in this data set, the particulars now being: fish.
Turning to `Clc1cc(-c2cc(Cl)c(Cl)c(Cl)c2Cl)cc(Cl)c1Cl`, the log10 biotransformation half-life (days) came to 2.32.

As for `Clc1ccc(-c2c(Cl)ccc(Cl)c2Cl)cc1`, the log10 biotransformation half-life (days) came to 2.35.

In turn, `Cc1c2ccccc2cc2ccccc12` had a log10 biotransformation half-life (days) of 0.23.

Molecule `c1ccc2cc3c(ccc4c5ccccc5ccc34)cc2c1` had a log10 biotransformation half-life (days) of 0.58.

With `Cc1cc(Cc2cc(C)cc(C(C)(C)C)c2O)c(O)c(C(C)(C)C)c1`, the log10 BCF is 2.74 and the log10 biotransformation half-life (days) amounted to 0.03.

These data come from the OPERA property sets (Mansouri et al. 2018).
